# ChEMBL document CHEMBL1201862, “PubChem BioAssay data set” (2004)
# The source made the active and inactive calls.
# How the values were obtained:
# [1] = A549 cell cytotoxicity, dose response, cytotoxicity control, plate reader, cherry-pick, antagonist series (AID 743412); assay type: functional, cell-based
# [2] = HepG2 cell cytotoxicity, dose response, cytotoxicity control, plate reader, cherry-pick, antagonist series (AID 743416); assay type: functional, cell-based
# [3] = microbe, parasite or virus in culture; assay type: functional; conditions: Mycobacterium tuberculosis
# [4] = tested on: Streptococcus sp. 'group A'; assay: growth inhibition of control SK(-) GAS strain, dose response, counter-screen for streptokinase expression inhibitor project, luminescence, kanamycin, BacTiterGlo, confirmation (AID 1900); assay type: functional, organism-based
# Streptokinase A = molecular target: T1, Streptokinase A (Streptococcus pyogenes serotype M1, UniProt P10520); assay: S. pyogenes streptokinase expression inhibitors, potency, dose response, plasminogen activation absorbance, OD405 (AID 1914); assay type: functional, Streptococcus pyogenes M1 GAS;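 note: secreted streptokinase activity via plasminogen activation per viability signal from cell pellet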
# T1 sequence (P10520 whole entry): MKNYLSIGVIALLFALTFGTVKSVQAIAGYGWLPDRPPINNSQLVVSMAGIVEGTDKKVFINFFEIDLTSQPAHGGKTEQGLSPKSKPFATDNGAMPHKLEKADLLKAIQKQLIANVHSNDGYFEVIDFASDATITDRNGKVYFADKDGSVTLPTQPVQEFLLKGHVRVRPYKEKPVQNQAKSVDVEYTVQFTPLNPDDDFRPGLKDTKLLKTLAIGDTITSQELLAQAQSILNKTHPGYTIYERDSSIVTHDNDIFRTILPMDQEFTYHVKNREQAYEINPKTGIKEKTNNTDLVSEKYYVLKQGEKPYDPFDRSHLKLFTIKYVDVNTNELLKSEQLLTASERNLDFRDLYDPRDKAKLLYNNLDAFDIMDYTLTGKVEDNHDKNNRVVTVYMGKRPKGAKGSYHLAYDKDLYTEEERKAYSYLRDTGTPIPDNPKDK
# Streptococcus = assay: Group A Streptococcus viability loss, dose response, counter-screen for streptokinase expression inhibitor project, luminescence, BacTiterGlo (AID 1915); assay type: functional, organism-based;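 note: potency for reduction of bacterial viability or growth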
# H9c2 = assay: cells; assay type: functional, cell-based; conditions: Rattus norvegicus, H9c2, Myocardium;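 note: confirmatory concentration-response retest of ultra-high-throughput screening hits for modulation of myocardial damage; cell death induced by hydrogen peroxide oxidative stress; compound pretreatment for 60 min then peroxide exposure for 2 h; potency is for protecting the cells against peroxide damage rather than for killing them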
# Protein skinhead-1 = molecular target: T2, Protein skinhead-1 (Caenorhabditis elegans, UniProt P34707); assay type: functional
# T2 sequence (P34707 whole entry): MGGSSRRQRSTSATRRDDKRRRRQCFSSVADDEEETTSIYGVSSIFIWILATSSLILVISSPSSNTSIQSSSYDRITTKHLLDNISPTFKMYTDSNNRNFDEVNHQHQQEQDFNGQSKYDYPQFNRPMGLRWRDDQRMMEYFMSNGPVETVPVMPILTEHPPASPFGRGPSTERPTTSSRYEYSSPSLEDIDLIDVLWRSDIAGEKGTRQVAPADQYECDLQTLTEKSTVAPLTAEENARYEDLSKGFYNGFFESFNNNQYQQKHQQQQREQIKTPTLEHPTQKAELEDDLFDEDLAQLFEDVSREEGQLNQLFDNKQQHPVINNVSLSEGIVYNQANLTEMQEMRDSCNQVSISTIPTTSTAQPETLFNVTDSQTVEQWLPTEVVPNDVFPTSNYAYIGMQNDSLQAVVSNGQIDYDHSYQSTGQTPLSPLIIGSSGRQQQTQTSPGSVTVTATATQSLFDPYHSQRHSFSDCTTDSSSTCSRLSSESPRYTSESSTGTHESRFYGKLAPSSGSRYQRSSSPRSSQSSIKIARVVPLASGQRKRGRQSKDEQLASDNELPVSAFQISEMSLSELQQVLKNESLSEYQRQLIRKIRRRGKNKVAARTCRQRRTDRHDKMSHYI
# [5] = Shn3 3'UTR reporter inhibitors, dose response, cell-based, Clone20 osteoblasts, firefly luciferase, cherry-picked (AID 624132); assay type: functional;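 note: firefly luciferase luminescence from reporter carrying the Shn3 3'UTR in osteoblasts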
# [6] = HepG2 cell cytotoxicity, dose response, cytotoxicity control for Shn3 inhibitor project, CellTiter-Glo, cherry-picked (AID 624134); assay type: functional, cell-based
# [7] = control 3'UTR Renilla luciferase suppression, dose response, counter-screen for Shn3 inhibitor project, cell-based, Clone20-Shn3RL, cherry-picked (AID 624133); assay type: functional
# Nonstructural protein 1 = Nonstructural protein 1 (Influenza A virus, UniProt Q194T2); assay type: functional, Influenza A virus (A/California/07/2009(H1N1))
# Chain of Nonstructural protein 1 (Q194T2 whole entry): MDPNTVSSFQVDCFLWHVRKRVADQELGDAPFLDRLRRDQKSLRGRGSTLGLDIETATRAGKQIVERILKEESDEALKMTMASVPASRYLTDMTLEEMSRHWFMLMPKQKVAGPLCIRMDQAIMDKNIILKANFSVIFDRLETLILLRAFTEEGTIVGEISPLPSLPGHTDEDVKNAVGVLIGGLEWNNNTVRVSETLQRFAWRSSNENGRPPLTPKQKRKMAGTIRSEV
# [8] = molecular target: Voltage-dependent T-type calcium channel subunit alpha-1H (Homo sapiens, UniProt O95180); assay type: functional;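 note: channel activity triggered by adding a high calcium stimulation buffer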
# Chain of Voltage-dependent T-type calcium channel subunit alpha-1H (O95180 whole entry): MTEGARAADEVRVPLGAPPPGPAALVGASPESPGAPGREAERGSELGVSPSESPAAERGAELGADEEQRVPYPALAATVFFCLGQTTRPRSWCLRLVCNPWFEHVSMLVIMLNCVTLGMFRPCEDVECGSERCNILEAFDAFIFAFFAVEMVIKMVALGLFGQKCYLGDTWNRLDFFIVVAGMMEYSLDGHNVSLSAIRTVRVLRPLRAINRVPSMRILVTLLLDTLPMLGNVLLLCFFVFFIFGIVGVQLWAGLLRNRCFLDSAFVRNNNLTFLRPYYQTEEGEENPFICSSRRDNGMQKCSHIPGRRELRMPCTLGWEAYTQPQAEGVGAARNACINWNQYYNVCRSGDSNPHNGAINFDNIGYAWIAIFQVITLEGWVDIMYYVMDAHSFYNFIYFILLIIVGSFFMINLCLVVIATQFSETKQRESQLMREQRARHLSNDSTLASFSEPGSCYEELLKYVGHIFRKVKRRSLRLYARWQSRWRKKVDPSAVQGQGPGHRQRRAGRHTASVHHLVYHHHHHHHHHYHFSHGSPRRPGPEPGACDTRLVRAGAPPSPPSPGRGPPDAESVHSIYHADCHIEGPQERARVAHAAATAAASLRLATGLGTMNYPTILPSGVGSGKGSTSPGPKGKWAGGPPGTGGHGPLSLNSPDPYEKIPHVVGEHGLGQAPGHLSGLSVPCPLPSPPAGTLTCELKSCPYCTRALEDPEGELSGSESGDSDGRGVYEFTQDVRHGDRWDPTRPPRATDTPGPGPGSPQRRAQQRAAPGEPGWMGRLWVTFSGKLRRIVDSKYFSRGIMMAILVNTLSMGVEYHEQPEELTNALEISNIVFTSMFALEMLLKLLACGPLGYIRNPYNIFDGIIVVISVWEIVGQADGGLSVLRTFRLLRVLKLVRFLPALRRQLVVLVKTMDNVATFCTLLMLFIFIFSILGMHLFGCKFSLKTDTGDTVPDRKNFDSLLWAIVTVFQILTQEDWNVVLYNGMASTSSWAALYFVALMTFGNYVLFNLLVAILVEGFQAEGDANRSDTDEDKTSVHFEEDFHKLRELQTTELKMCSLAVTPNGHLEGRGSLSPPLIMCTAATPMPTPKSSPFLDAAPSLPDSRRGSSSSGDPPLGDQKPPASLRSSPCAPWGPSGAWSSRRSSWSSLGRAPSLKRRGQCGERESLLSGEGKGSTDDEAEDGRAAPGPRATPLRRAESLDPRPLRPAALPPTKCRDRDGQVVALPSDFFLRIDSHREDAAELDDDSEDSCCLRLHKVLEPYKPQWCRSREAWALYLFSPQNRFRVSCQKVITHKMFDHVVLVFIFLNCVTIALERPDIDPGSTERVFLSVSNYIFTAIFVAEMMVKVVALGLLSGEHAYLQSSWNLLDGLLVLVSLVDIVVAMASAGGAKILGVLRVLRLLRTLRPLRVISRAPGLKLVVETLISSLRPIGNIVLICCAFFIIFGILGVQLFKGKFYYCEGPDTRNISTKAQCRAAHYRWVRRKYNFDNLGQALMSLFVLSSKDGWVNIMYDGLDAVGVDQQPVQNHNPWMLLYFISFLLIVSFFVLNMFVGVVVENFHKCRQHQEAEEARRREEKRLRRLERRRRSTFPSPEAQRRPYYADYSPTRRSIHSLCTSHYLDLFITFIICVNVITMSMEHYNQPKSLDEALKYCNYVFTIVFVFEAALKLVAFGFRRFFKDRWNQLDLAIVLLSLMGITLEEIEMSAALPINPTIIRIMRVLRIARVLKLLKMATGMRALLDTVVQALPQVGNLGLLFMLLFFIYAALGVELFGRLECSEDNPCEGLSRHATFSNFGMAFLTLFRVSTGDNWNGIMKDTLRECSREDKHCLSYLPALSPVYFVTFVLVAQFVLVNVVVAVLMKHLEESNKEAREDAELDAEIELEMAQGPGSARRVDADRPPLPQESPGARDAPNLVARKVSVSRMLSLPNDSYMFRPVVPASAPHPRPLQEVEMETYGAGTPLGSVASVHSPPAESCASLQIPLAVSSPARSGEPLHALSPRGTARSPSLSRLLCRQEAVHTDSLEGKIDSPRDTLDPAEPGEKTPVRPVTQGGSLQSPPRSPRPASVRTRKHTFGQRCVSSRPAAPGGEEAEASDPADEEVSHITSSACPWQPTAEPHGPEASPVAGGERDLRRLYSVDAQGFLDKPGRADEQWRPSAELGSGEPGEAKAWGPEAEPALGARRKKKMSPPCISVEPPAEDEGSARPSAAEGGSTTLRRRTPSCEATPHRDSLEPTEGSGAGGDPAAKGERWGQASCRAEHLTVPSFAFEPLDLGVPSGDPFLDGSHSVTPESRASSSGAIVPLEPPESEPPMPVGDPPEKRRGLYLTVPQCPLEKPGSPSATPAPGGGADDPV
# Cytochrome P450 2C19 = Cytochrome P450 2C19 (Homo sapiens, UniProt P33261); assay: Cytochrome panel assay with activity outcomes. Panel member name: p450-cyp2c19 Compounds with AC50 equal or less than 10 uM are considered active; assay type: functional; conditions: read-out: AC50
# Chain of Cytochrome P450 2C19 (P33261 whole entry): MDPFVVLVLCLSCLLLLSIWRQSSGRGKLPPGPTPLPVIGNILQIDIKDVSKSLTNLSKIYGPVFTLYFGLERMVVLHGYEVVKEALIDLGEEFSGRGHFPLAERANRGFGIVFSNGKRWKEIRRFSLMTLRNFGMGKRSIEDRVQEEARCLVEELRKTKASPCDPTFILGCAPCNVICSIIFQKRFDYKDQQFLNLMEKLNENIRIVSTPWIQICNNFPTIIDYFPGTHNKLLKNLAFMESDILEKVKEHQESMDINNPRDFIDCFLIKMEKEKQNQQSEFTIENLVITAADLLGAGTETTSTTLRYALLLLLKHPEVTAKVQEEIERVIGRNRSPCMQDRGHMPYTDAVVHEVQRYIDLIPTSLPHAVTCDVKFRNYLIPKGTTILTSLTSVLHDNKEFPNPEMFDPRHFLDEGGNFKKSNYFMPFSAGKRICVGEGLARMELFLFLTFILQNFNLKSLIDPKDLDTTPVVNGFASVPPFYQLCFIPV
# [9] = Luminescence Cell-Based Dose Retest to Confirm Inhibitors of Cancer Stem Cells. [Related pubchem assays (depositor defined):AID2717, AID2721]; assay type: functional; conditions: Homo sapiens
# INS1 = assay: beta cell apoptosis inhibitors, cytokine rescue, dose response, luminescence, retest (AID 449756); assay type: functional, cell-based; conditions: Rattus norvegicus;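 note: cell death triggered by IL-1 beta plus TNF-alpha plus IFN-gamma mixture; protective hits raise ATP signal compared with cytokine alone wells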
compound,measurement,setting,value
O=C(c1ccc2c(c1)OCCO2)C1CCN(S(=O)(=O)c2ccc(F)cc2)CC1,AC50,[1],> 52 µM (inactive)
same,AC50,[2],> 52 µM (inactive)
COc1ccc(-c2nc(NC(=O)c3[nH]c(C)c(C(C)=O)c3C)sc2C)cc1,CC50,[3],> 40 µM (active)
CC(OC(=O)Cc1nnc(O)c2ccccc12)C(=O)Nc1ccc(Cl)cn1 (centres undefined),EC50,[4],9.99 µM (active)
same,EC50,Streptokinase A,> 150 µM (not active)
same,EC50,Streptococcus,23.1 µM (active)
same,IC50,H9c2,7.17 µM (active)
O=C(Nc1nc2c(s1)CCc1ccccc1-2)c1ccco1,IC50,Protein skinhead-1,> 100 µM (inactive)
Fc1ccc2[nH]c3c(NCc4ccccc4)ncnc3c2c1,CC50,[3],> 40 µM (active)
same,AC50,[5],3.09 µM (active)
same,AC50,[6],30.1 µM (active)
same,AC50,[7],13.1 µM (active)
O=[N+]([O-])c1ccc(Nc2ccccc2)cc1,IC50,Protein skinhead-1,12.7 µM (active)
Cc1ccc(NC(=O)CSc2n[nH]c(-c3ccccn3)n2)cc1,IC50,Nonstructural protein 1,6.74 µM (active)
O=C(Nc1ccccc1)N1CCCC(c2nc(-c3ccc(F)cc3)no2)C1 (centres undefined),EC50,[8],1.52 µM (active)
same,AC50,Cytochrome P450 2C19,39.8 µM (inconclusive)
S=C(NC1CCCCC1)N(CCc1nc2ccccc2[nH]1)C1CCCC1,EC50,[8],5.18 µM (active)
Cc1[nH]c2ccccc2c1C1C(c2ccccc2)=NN=C(C(C)C)N1O (centres undefined),EC50,[8],16.1 µM (active)
CC(c1ccccc1)N1C(=O)c2cccnc2C1=O (centres undefined),IC50,Protein skinhead-1,> 100 µM (inactive)
CCOC(=O)N1CCN(S(=O)(=O)c2ccc(C(=O)NNc3nc4cc(C)cc(C)c4s3)cc2)CC1,AC50,[9],3.69 µM (active)
same,IC50,Nonstructural protein 1,> 100 µM (active)
same,AC50,INS1,3.67 µM (active)
COC(=O)[C@@]12CCCCN1[C@H](c1ccc(-c3cc(C(C)=O)cs3)cc1)[C@H]1C(=O)N(C)C(=O)[C@H]12,IC50,H9c2,> 79 µM (inactive)
CC(Sc1nnc(NC2CCCCC2)s1)C(=O)Nc1ccc2c(c1)C(=O)c1ccccc1C2=O (centres undefined),CC50,[3],29.7 µM (active)
CCCn1c(=O)c(C(=O)NCCc2ccc(Cl)cc2)c(O)c2ccccc21,IC50,H9c2,> 79 µM (inactive)
O=C(CSC(=S)N1CCCC1)c1cc(Br)cc(Br)c1O,CC50,[3],> 40 µM (active)
Cc1ccc(N(C)C(=O)Oc2cccc3ccc(C)nc23)cc1,EC50,[8],12.3 µM (active)
O=C(CCn1c(=O)oc2ccccc21)N(Cc1ccccc1)c1ccccc1,IC50,H9c2,> 79 µM (inactive)
CCN(CC)S(=O)(=O)c1ccc(N(C)CCc2ccc(OC)c(OC)c2)nc1,IC50,Protein skinhead-1,> 100 µM (inactive)
